Reference: patent US5126134A, “Pharmaceutically active combination” (Ciba-Geigy Corporation, priority 1988, dated 1992)

What was measured:
[1] = tested on: coagulation (clotting time, aPTT) of citrated plasma; assay: In vitro clot lysis / coagulation in citrated plasma with t-PA; assay type: biochemical, Human; conditions: for concentration leading to the same prolongation of aPTT (equipotent concentration): human citrated plasma
Procedure: Human blood is directly withdrawn into 3.8% sodium citrate solution (ratio blood/citrate solution 9:1). The mixture is centrifuged at 1,000 rpm for 10 min to yield citrated plasma.
A mixture consisting of 150 μl citrated plasma 125 μl 0.9% sodium chloride solution 100 μl desulfato hirudin HV1 or MCI-9038 (see below) in 0.9% sodium chloride is prepared directly in 1 ml cuvettes equilibrated at 37° C. The mixture is incubated for 15 min at 37° C. Then, 25 μl of a 1 μg/ml t-PA stock solution (American Diagnostica, New York) and 300 μl 0.0025M calcium chloride solution are added to start coagulation.
The change in the optical density (coagulation) is continuously measured at 608 nm in a Uvikon 810 P spectrophotometer equipped with a kinetic program.
The time (in minutes) from addition of the CaCl2 solution to a change in absorbance greater than 0.025 is defined as the coagulation time. The clot lysis time (in minutes) is defined as the time from the beginning of the clotting to the time at which the absorbance decreased to 10% of the maximum absorbance.
The thrombin inhibitor MCI-9038 [(2R,4R)-4-methyl-1-[N^2 -[(3-methyl-1,2,3,4-tetrahydro-8-quinolyl)-sulfonyl]-L-arginyl]-2-piperidinecarboxylic acid] is chemically synthesized as described in S. Okamoto et al., Biochem. Biophys. Res. Commun. 101, 440-446 (1981). It is used at the following end concentrations: 0.07, 0.14, 0.28, 0.56 and 1.1 μM. The desulfato hirudin used has been prepared by recombinant DNA technology using transformed yeast according to the procedure described in European Patent Application No. 225,633. It is used at the following end concentrations: 0.8, 1.6, 3.2, 8 and 16 nM. The concentrations chosen of MCI-9038 and desulfato hirudin are equipotent concentrations in terms of prolongation of clotting time (coagulation), e.g. 1.2 μM MCl-9038 and 16 nM desulfato hirudin lead to the same prolongation of aPTT.

[2] = tested on: activated partial thromboplastin time; assay: aPTT prolongation in control experiments (rabbit model); assay type: in vivo, New Zealand white rabbits; conditions: heparin 0.75 mg/kg, hirudin 1 mg/kg
Procedure: Intravenous infusions are carried out by using a constant rate infusion pump. t-PA derived from melanoma cell cultures is obtained from BioResponse, USA. A total dose of 0.5 mg t-PA is infused through the marginal ear vein over a period of 3 hours. Along with t-PA either saline, standard heparin (KabiVitrum, Sweden, 140 USP/mg; 0.75 mg/kg) or hirudin (1 mg/kg) are infused. Doses of heparin and hirudin are used which give in control experiments the same prolongation in aPTT (activated partial thromboplastin time), e.g. times two.

[3] = tested on: preformed non-radioactive thrombi in the jugular vein; assay: Rabbit jugular vein thrombosis model: inhibition of thrombus accretion during thrombolysis with t-PA; assay type: in vivo, New Zealand white rabbits
Procedure: The experiments are performed with New Zealand white rabbits (weighing 2.3-3.5 kg) anaesthesized by intravenous (marginal ear vein) injection of 30 mg/kg sodium pentobarbital. Through a paramedical incision of the neck, the jugular veins and the right carotid artery are exposed. The right carotid artery is cannulated with a 1.5 mm diameter polyethylene cannula for blood sampling. The two jugular veins are isolated, cleared over a distance of 2 cm, small side branches are ligated. Each jugular segment is emptied of blood and blood flow is temporarily occluded both proximally and distally by two angiostaths, 1.5 cm apart. A 10 cm length 3.0 TiCron braided polyester suture, presoaked in a collagen solution, is introduced lengthwise in the lumen of the isolated jugular vein for a distance of 4 cm to avoid the embolization of the thrombus to be produced. […] The effects of standard heparin and recombinant desulfato hirudin in preventing thrombus extension during thrombolysis with t-PA are assessed as their ability to inhibit the accretion of ^125 I-fibrinogen onto autologous non-radioactive thrombi preformed in the jugular vein of rabbits. […] The ratio of the radioactivity of the thrombus to the circulating fibrinogen radioactivity is used to quantify thrombus size, which is then expressed as μg or ^125 I-fibrinogen accreted onto the thrombus.

Row | Compound | concentration leading to the same prolongation of aPTT (equipotent concentration) ([1]; equipotent with 16 nM desulfato hirudin) [µM] | concentration needed to achieve the same effect as a given concentration of desulfato hirudin ([1]; relative to desulfato hirudin, in vitro clot lysis) | concentration leading to the same prolongation of aPTT (equipotent concentration) ([1]; equipotent with 1.2 μM MCI-9038) [µM] | prolongation in aPTT [2] | effect on thrombus accretion during t-PA thrombolysis ([3]; FIG. 1, infused along with t-PA, heparin 0.75 mg/kg, desulfato hirudin 1 mg/kg) | effect on thrombus accretion with increasing concentrations ([3]; FIG. 2, t-PA with various concentrations of desulfato hirudin)
1 | CC1CNc2c(cccc2S(=O)(=O)N[C@@H](CCCNC(=N)N)C(=O)N2CC[C@@H](C)C[C@@H]2C(=O)O)C1 (stereo partly drawn) [MCI-9038, (2R,4R)-4-methyl-1-[N^2-[(3-methyl-1,2,3,4-tetrahydro-8-quinolyl)-sulfonyl]-L-arginyl]-2-piperidinecarboxylic acid] | 1.2 | twenty-fold | – | – | – | –
2 | desulfato hirudin HV1 | – | – | 0.016 | times two | clear reduction in thrombus accretion | this effect can even be potentiated
